Measured values published in patent US20260041683A1, “Compounds with Anti-Acinetobacter Baumannii Activity” (University of Kentucky Research Foundation, priority 2022, published 2026).
Converted amounts (≈) assume the structure as drawn. Where two headings read alike, the source gives them in different places.

How the values were obtained:
Ab ATCC 19606 (strain I) = assay: MIC determination (double dilution, Mueller-Hinton broth); format: cell-based, Acinetobacter baumannii; conditions: Acinetobacter baumannii, ATCC19606
Protocol: All bacterial strains listed above were stored at −80° C. All strains were streaked on Mueller-Hinton (MH) plates and allowed to grow at 37° C. overnight. […] The resulting culture was diluted 1:1000 and added to the prepared serially doubly diluted compound solutions in 96-well plates. For M. smegmatis, a 1:100 dilution of the bacteria was done in MH. All MIC values were determined using 96-well plates with low evaporation seals at least in duplicate. For each row, one well was reserved for sterile control (which consisted of 200 μL of MH medium) and another well was reserved for growth control (which consisted of 100 μL of MH medium seeded with 100 μL of bacterial culture).
(§1) Minimum inhibitory concentrations (MIC) of all compounds from the series were measured in liquid cultures of different Ab strains by a double-dilution method in Mueller-Hinton broth. Initially, the activity of all 46 compounds against Ab ATCC 19606 (a control strain) and Ab ATCC BAA1605 (a multidrug-resistant strain) (Table 1; data shown for 27 representative compounds) was measured.

[1] = test system: Ab ATCC BAA1605 (strain J, multidrug-resistant); assay: MIC determination; format: cell-based; conditions: Acinetobacter baumannii
Protocol: (§2) All bacterial strains listed above were stored at −80° C. All strains were streaked on Mueller-Hinton (MH) plates and allowed to grow at 37° C. overnight. Enough colonies were scraped from the plate and suspended in MH broth with vortexing to reach an attenuance at 600 nm (OD600) of ˜0.5. The resulting culture was diluted 1:1000 and added to the prepared serially doubly diluted compound solutions in 96-well plates. For M. smegmatis, a 1:100 dilution of the bacteria was done in MH. All MIC values were determined using 96-well plates with low evaporation seals at least in duplicate. For each row, one well was reserved for sterile control (which consisted of 200 μL of MH medium) and another well was reserved for growth control (which consisted of 100 μL of MH medium seeded with 100 μL of bacterial culture).
as §1

[2] = test system: all 43 strains of A. baumannii (41 CDC strains and 2 ATCC strains); assay: MIC value statistics for all A. baumannii strains; format: cell-based, Acinetobacter baumannii; conditions: of 43 A. baumannii strains
Protocol: as §2, with “[…].” for “For M. smegmatis, a 1:100 dilution of the bacteria was done in MH. All MIC values were determined using 96-well plates with low evaporation seals at least in duplicate.”
Having established that the observed activity is selective to A. baumannii, all synthesized compounds were tested against a panel of antibiotic resistant A. baumannii from the Antimicrobial Resistant (AR) Isolate Bank from the CDC along with strains I and J (Table Si). […]. Based on this statistical analysis, the best compound is 5e followed closely by 3e.

K. pneumoniae ATCC 27736 = assay: MIC determination; format: cell-based; conditions: Klebsiella pneumoniae, ATCC27736; Table 5; Mueller-Hinton medium; F = K. pneumoniae ATCC 27736; read-out: MIC strain F
P. aeruginosa ATCC 27853 = assay: MIC determination; format: cell-based; conditions: Pseudomonas aeruginosa, ATCC27853; Table 5; Mueller-Hinton medium; G = P. aeruginosa ATCC 27853; read-out: MIC strain G
B. anthracis Sterne F32 = assay: microbe, parasite or virus in culture; format: cell-based; conditions: Bacillus anthracis, STERNEF32, read-out: MIC strain A
S. enterica ATCC 14028 = assay: MIC determination; format: cell-based; conditions: Salmonella enterica, ATCC14028; Table 5; Mueller-Hinton medium; H = S. enterica ATCC 14028; read-out: MIC strain H
E. cloacae ATCC 13047 = assay: MIC determination; format: cell-based; conditions: Enterobacter cloacae, ATCC13047; Table 5; Mueller-Hinton medium; E = E. cloacae ATCC 13047; read-out: MIC strain E
[3] = test system: S. epidermidis ATCC 12228; assay: MIC determination; format: cell-based; conditions: Staphylococcus epidermidis, ATCC12228; Table 5; Mueller-Hinton medium; C = S. epidermidis ATCC 12228; read-out: MIC strain C
S. aureus ATCC 25923 = assay: MIC determination; format: cell-based; conditions: Staphylococcus aureus, ATCC25923; Table 5; Mueller-Hinton medium; B = S. aureus ATCC 25923; read-out: MIC strain B
E. coli MC1061 = assay: MIC determination; format: cell-based; conditions: Escherichia coli; Table 5; Mueller-Hinton medium; D = E. coli MC1061; read-out: MIC strain D
[4] = Table 1, control strain, read-out: MIC Ab ATCC 19606
[5] = Table 1, multidrug-resistant strain, read-out: MIC Ab ATCC BAA 1605
[6] = Table 5, Mueller-Hinton medium, I = A. baumannii ATCC 19606, read-out: MIC strain I
[7] = Table 5, Mueller-Hinton medium, J = A. baumannii BAA1605, read-out: MIC strain J

Compound | MIC (Ab ATCC 19606 (strain I); [4]) | MIC [1, 5] | number of compound/strain combinations with MIC value 0.25 μg/mL [2] | number of compound/strain combinations with MIC value 0.5 μg/mL [2] | number of compound/strain combinations with MIC value 1 μg/mL [2] | number of compound/strain combinations with MIC value 2 μg/mL [2] | number of compound/strain combinations with MIC value ≤0.125 μg/mL [2] | MIC (Ab ATCC 19606 (strain I); [6]) | MIC [1, 7] | MIC (K. pneumoniae ATCC 27736) | MIC (P. aeruginosa ATCC 27853) | MIC (B. anthracis Sterne F32) | MIC (S. enterica ATCC 14028) | MIC (E. cloacae ATCC 13047) | MIC [3] | MIC (S. aureus ATCC 25923) | MIC (E. coli MC1061) | number of compound/strain combinations with MIC value >64 μg/mL [2]
O=C(NNc1cccc(F)c1)c1ccccn1 [Compound 2a] | 2 mg/L (≈ 8.65 µM) | 0.5 mg/L (≈ 2.16 µM) | 10 | 18 | 10 | 3 | 2 | – | – | – | – | – | – | – | – | – | – | –
O=C(NNc1cccc(F)c1)c1ccc(F)cn1 [Compound 3a] | 0.5 mg/L (≈ 2.01 µM) | 0.5 mg/L (≈ 2.01 µM) | 16 | 18 | – | – | 9 | 0.5 mg/L (≈ 2.01 µM) | 0.5 mg/L (≈ 2.01 µM) | > 64 mg/L | > 64 mg/L | > 64 mg/L | > 64 mg/L | > 64 mg/L | > 64 mg/L | > 64 mg/L | 64 mg/L (≈ 257 µM) | –
COc1cccc(NNC(=O)c2ccc(F)cn2)c1 [Compound 3c] | 0.5 mg/L (≈ 1.91 µM) | 0.5 mg/L (≈ 1.91 µM) | 2 | 12 | 23 | 5 | 1 | 0.5 mg/L (≈ 1.91 µM) | 0.5 mg/L (≈ 1.91 µM) | > 64 mg/L | > 64 mg/L | > 64 mg/L | > 64 mg/L | > 64 mg/L | 64 mg/L (≈ 245 µM) | > 64 mg/L | > 64 mg/L | –
O=C(NNc1ccc(F)cc1)c1ccc(F)cn1 [Compound 3d] | 0.5 mg/L (≈ 2.01 µM) | 0.25 mg/L (≈ 1 µM) | 10 | 19 | 13 | – | 1 | 0.5 mg/L (≈ 2.01 µM) | 0.25 mg/L (≈ 1 µM) | 64 mg/L (≈ 257 µM) | > 64 mg/L | > 64 mg/L | 64 mg/L (≈ 257 µM) | 64 mg/L (≈ 257 µM) | > 64 mg/L | > 64 mg/L | 64 mg/L (≈ 257 µM) | –
CCOC(=O)CNNC(=O)c1ccc(F)cn1 [Compound 3g] | > 64 mg/L | > 64 mg/L | – | – | – | – | – | – | – | – | – | – | – | – | – | – | – | 43
O=C(NNc1cccc(F)c1)c1ccc(Br)cn1 [Compound 4a] | 0.5 mg/L (≈ 1.61 µM) | 0.5 mg/L (≈ 1.61 µM) | 2 | 8 | 19 | 14 | – | – | – | – | – | – | – | – | – | – | – | –
CCOC(=O)CNNC(=O)c1cccc(F)n1 [Compound 5g] | > 64 mg/L | > 64 mg/L | – | – | – | – | – | – | – | – | – | – | – | – | – | – | – | 43
O=C(NNc1cccc(F)c1)c1cccc(Br)n1 [Compound 6a] | 0.5 mg/L (≈ 1.61 µM) | 0.5 mg/L (≈ 1.61 µM) | 4 | 16 | 19 | 4 | – | – | – | – | – | – | – | – | – | – | – | –
O=C(NNc1ccc(Cl)cc1)c1ncc(F)cc1F [Compound 7e] | 0.125 mg/L (≈ 0.441 µM) | 0.125 mg/L (≈ 0.441 µM) | 28 | 7 | – | – | 8 | – | – | – | – | – | – | – | – | – | – | –
O=C(NNc1ccc(Cl)cc1)c1nc(F)ccc1F [Compound 8e] | 0.125 mg/L (≈ 0.441 µM) | 0.0625 mg/L (≈ 0.22 µM) | 34 | 2 | – | – | 7 | – | – | – | – | – | – | – | – | – | – | –
O=C(NNc1cccc(F)c1)c1ccccc1 [Compound 10a] | 0.25 mg/L (≈ 1.09 µM) | 0.5 mg/L (≈ 2.17 µM) | 19 | 17 | 1 | – | 6 | – | – | – | – | – | – | – | – | – | – | –
O=C(NNc1cccc(F)c1)c1cccnc1 [Compound 11a] | 0.25 mg/L (≈ 1.08 µM) | 0.5 mg/L (≈ 2.16 µM) | 11 | 26 | 4 | – | 2 | – | – | – | – | – | – | – | – | – | – | –
O=C(NNC1CCCCC1)c1cccnc1 [Compound 11h] | > 64 mg/L | > 64 mg/L | – | – | – | – | – | – | – | – | – | – | – | – | – | – | – | 43
O=C(NNc1ccc(Cl)cc1)c1cnc2ccccc2n1 [Compound 13e] | 0.5 mg/L (≈ 1.67 µM) | 0.25 mg/L (≈ 0.837 µM) | 9 | 22 | 12 | – | – | – | – | – | – | – | – | – | – | – | – | –
O=C(NNc1cccc(F)c1)c1cc2ccccc2[nH]1 [Compound 14a] | 0.25 mg/L (≈ 0.928 µM) | 0.25 mg/L (≈ 0.928 µM) | 13 | 25 | 5 | – | – | – | – | – | – | – | – | – | – | – | – | –
